This note sets out measurements from ChEMBL document CHEMBL5620346, “Current scenario of pyrazole hybrids with in vivo therapeutic potential against cancers” (Eur J Med Chem, 2023).

Data set [1] has as its system BT-549. In words: Antitumor activity against human BT-549 cells xenografted in BALB/c nude mouse assessed as tumor growth inhibition at 30 mg/kg, sc administered for 20 days relative to control. In kind it is functional. The note with it: BT-549, 480 h, time 20 day, read-out: TGI.
Data set [2] deals with T47D. In words: Antiproliferative activity against human T47D cells assessed as reduction in cell viability incubated for 72 hrs by MTT assay. In kind it is functional, cell-based. A general note: Formazan colour is commonly taken as a measure of viable cells.
Data set [3] relates to BT-549. Kind of data set: Antiproliferative activity against human BT-549 cells assessed as inhibition of cell proliferation incubated for 72 hrs by MTT assay. The note with it: BT-549, 72 h. In kind it is functional, cell-based.
In data set [4] the test system is MDA-MB-231. In words: Antiproliferative activity against human MDA-MB-231 cells assessed as reduction in cell viability incubated for 72 hrs by MTT assay. In kind it is functional, cell-based. The note with it: MDA-MB-231, 72 h.
Data set [5] has as its system MDA-MB-453. In words: Antiproliferative activity against human MDA-MB-453 cells assessed as reduction in cell viability incubated for 72 hrs by MTT assay. In kind it is functional, cell-based. The following applies: MDA-MB-453, 72 h.
Data set [6] deals with MCF7. In words: Antiproliferative activity against human MCF7 cells assessed as reduction in cell viability incubated for 72 hrs by MTT assay. In kind it is functional, cell-based. The following applies: MCF7, 72 h.
In data set [7] the test system is HT-29. In words: Antitumor activity against human HT-29 cells xenografted in BALB/c mouse assessed as reduction in tumor growth at 50 mg/kg, ip administered once daily for 14 days relative to control. In kind it is functional. The note with it: HT-29, 336 h, time 14 day, read-out: TGI. For orientation: A xenograft is tissue or cells of one species grown in another, often human tumour cells in immunodeficient mice.

The test system of data set [8] is MCF7. Kind of data set: Antiproliferative activity against human MCF7 cells assessed as reduction in cell viability incubated for 48 hrs by MTT assay. In kind it is functional, cell-based. The following applies: MCF7, 48 h.
Data set [9] has as its system HT-29. In words: Antitumor activity against human HT-29 cells xenografted in BALB/c mouse assessed as reduction in tumor growth at 50 mg/kg, po administered once daily for 14 days relative to control. In kind it is functional. The note with it: HT-29, 336 h, time 14 day, read-out: TGI.
The subject of data set [10] is MIA PaCa-2. In words: Antiproliferative activity against human MIA PaCa-2 cells measured after 72 hrs by MTT assay. In kind it is functional, cell-based. The following applies: MIA PaCa-2, 72 h.
The test system of data set [11] is B16-F10. In words: Antitumor activity against mouse B16-F10 cells implanted in C57BL/6 mouse assessed tumor growth inhibition at 2.5 mg/kg, ip measured for 14 days relative to control. The following applies: B16-F10, 336 h, time 14 day, read-out: TGI. In kind it is functional.
The subject of data set [12] is B16-F10. Kind of data set: Antiproliferative activity against mouse B16-F10 cells assessed as reduction in cell proliferation incubated for 4 days by crystal violet based assay. In kind it is functional. The following applies: B16-F10, 96 h.
Data set [13] relates to PANC-1. In words: Anticancer activity against human PANC-1 cells assessed as reduction in cell viability by measuring ATP level incubated for 24 hrs by CellTiter-Glo assay. In kind it is functional, cell-based. The following applies: PANC-1, 24 h. On the technique in general: In ATP-based viability assays light output follows the ATP content of the culture.
Data set [14] deals with Panc02. Kind of data set: Antiproliferative activity against mouse Panc02 cells measured after 72 hrs by MTT assay. In kind it is functional, cell-based. The following applies: Panc02, 72 h.
The test system of data set [15] is COLO357. Kind of data set: Inhibition of cell growth in human COLO357 cells incubated for 72 hrs by MTT assay. In kind it is functional, cell-based. The note with it: COLO357, 72 h.
The subject of data set [16] is MDA-MB-231. In words: Antiproliferative activity against human MDA-MB-231 cells assessed as reduction in cell viability incubated for 48 hrs by MTT assay. In kind it is functional, cell-based. The following applies: MDA-MB-231, 48 h.
The subject of data set [17] is SNU-16. In words: Antiproliferative activity against human SNU-16 cells assessed as reduction in cell viability by SRB assay. In kind it is functional, cell-based.
A short description of data set [18]: Cmax in CD-1 mouse at 3 mg/kg, ip measured after 24 hrs by LC-MS/MS analysis. In kind it is ADME, organism-based. The note with it: in vivo.
Data set [19] addresses Vascular endothelial growth factor receptor 1 (Homo sapiens, UniProt P17948). Kind of data set: Inhibition of VEGFR1 (unknown origin).
For data set [20], the system named is NCI-H1581. In words: Antitumor activity against human NCI-H1581 cells xenografted in BALB/c nude mouse assessed as tumor growth inhibition once daily at 50 mg/kg, ip for 24 days relative to control. The following applies: NCI-H1581, 576 h, read-out: TGI.
The target of data set [21] is Vascular endothelial growth factor receptor 2 (Homo sapiens, UniProt P35968). In words: Inhibition of VEGFR2 (unknown origin).
Vascular endothelial growth factor receptor 2, sequence (P35968 whole entry): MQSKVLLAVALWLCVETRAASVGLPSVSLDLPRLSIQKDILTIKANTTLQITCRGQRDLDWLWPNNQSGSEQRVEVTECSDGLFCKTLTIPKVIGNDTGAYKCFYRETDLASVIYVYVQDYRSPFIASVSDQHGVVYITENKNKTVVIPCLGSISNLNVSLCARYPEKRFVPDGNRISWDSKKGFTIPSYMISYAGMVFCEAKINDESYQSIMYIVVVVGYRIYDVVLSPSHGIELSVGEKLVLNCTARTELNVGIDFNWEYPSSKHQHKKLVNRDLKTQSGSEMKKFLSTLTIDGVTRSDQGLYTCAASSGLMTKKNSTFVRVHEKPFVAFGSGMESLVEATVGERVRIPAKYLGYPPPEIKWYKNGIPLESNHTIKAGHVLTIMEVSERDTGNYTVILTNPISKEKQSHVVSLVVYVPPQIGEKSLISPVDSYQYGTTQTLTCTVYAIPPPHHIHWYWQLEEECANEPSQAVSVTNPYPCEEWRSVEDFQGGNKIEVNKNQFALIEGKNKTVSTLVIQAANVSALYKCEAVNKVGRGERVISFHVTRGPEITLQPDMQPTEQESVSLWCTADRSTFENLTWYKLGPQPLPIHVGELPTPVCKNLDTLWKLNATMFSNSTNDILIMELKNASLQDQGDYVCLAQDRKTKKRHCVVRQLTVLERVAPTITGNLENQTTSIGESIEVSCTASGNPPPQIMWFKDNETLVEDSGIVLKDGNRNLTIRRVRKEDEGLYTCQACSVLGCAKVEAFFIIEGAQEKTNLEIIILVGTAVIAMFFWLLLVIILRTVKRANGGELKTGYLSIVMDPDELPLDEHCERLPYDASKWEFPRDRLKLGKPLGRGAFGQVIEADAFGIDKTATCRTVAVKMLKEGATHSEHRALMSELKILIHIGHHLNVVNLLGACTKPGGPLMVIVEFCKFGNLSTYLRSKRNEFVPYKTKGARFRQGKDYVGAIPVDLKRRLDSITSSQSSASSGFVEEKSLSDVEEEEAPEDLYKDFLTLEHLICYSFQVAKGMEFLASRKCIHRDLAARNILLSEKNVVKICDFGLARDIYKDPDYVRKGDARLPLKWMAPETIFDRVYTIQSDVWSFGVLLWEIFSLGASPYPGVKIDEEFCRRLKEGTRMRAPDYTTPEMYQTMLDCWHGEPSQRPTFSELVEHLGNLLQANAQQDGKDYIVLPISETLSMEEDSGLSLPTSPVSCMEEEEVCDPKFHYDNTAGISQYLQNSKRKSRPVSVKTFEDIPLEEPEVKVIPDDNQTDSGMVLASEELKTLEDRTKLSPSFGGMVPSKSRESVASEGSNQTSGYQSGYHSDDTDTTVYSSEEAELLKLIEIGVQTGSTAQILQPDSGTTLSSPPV
Data set [22] can be described thus: AUC (0 to infinity) in CD-1 mouse at 3 mg/kg, ip measured after 24 hrs by LC-MS/MS analysis. In kind it is ADME, organism-based. The note with it: in vivo.
A short description of data set [23]: Half life in CD-1 mouse at 3 mg/kg, ip measured after 24 hrs by LC-MS/MS analysis. In kind it is ADME, organism-based. The following applies: in vivo.
A short description of data set [24]: Antiproliferative activity against human UMUC14 cells assessed as reduction in cell viability by SRB assay. In kind it is functional, cell-based.
In data set [25] the test system is NCI-H1581. In words: Antitumor activity against human NCI-H1581 cells xenografted in BALB/c nude mouse assessed as tumor growth inhibition once daily at 10 mg/kg, ip for 24 days relative to control. The note with it: NCI-H1581, 576 h, read-out: TGI.
Data set [26] has as its system KG-1. In words: Antiproliferative activity against human KG-1 cells assessed as reduction in cell viability by SRB assay.
Data set [27] has as its system NCI-H1581. Kind of data set: Antiproliferative activity against human NCI-H1581 cells assessed as reduction in cell viability by SRB assay. In kind it is functional, cell-based.

Vascular endothelial growth factor receptor 1, sequence (P17948 whole entry): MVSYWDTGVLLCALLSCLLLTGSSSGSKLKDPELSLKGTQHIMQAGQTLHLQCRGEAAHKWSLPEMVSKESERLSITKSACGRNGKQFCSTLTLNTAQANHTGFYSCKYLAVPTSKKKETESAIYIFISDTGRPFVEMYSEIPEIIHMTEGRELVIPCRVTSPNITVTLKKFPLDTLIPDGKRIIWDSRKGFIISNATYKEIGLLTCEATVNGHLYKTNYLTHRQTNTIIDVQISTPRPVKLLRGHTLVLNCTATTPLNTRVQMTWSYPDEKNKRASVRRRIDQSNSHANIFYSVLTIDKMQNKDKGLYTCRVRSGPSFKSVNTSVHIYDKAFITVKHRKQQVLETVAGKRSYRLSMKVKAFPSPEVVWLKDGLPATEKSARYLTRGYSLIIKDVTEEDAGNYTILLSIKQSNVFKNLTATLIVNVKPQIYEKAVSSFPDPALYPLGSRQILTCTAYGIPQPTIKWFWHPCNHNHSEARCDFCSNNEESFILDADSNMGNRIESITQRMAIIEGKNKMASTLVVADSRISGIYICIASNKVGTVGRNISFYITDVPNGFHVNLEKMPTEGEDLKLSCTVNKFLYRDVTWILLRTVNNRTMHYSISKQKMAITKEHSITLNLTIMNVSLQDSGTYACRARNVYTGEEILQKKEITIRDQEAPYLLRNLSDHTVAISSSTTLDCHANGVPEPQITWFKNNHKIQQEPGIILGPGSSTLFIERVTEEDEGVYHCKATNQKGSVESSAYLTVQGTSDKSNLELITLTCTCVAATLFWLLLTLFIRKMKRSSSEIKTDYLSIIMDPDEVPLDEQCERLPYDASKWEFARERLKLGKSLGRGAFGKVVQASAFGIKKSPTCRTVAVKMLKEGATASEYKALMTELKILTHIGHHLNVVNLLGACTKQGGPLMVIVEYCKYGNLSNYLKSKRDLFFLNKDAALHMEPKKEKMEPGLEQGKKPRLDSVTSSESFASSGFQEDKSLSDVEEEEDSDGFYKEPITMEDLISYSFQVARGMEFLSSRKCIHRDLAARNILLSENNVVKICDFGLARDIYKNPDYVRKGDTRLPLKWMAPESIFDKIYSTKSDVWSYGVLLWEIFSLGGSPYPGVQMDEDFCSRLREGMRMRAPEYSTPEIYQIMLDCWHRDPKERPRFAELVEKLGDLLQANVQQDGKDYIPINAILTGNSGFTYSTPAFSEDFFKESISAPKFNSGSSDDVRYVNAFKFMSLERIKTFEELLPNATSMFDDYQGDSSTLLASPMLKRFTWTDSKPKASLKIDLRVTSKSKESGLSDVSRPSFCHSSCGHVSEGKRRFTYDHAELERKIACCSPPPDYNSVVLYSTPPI

With `CN(C)S(=O)(=O)Nc1cccc(-c2cnn(-c3ccc(C(F)(F)F)cc3)c2)c1`, in [1], the inhibition in vivo at 30 mg/kg was approximately 50%. Further, the IC50 in data set [2], in data set [3], in data set [4], in data set [5] and in data set [6] was 3.44 µM in each case.

`Cc1ccc(C2CC(c3ccc(F)cc3)=NN2C(=O)CN2C(=O)CCC2=O)cc1` (configuration not stated): the inhibition in vivo at 50 mg/kg was found to be 66% in data set [7] and 60% in [9]. In addition, in data set [8], the IC50 came to 780 nM.

For `Clc1ccccc1C(c1ccccc1)(c1ccc(CCC[P+](c2ccccc2)(c2ccccc2)c2ccccc2)cc1)n1cccn1` (configuration not stated), the IC50 in [10], in data set [12], in data set [13], in data set [14], in data set [15] and in [16] was 1310 nM each time. Moreover, the inhibition in vivo at 2.5 mg/kg in [11] stood at 60%.

As to `Cc1ccc2oc(-c3c4c(N)n[nH]c(=O)c4nn3-c3ccc(NC(=O)/C=C/CN(C)C)cc3)c(C)c2c1`, the half-inhibitory concentration (IC50) is less than 0.3 nM in data set [17]; 3 nM in data set [19]; 1.9 nM in data set [21]; 43 nM in data set [24]; 43 nM in [26]; 43 nM in data set [27]. In data set [18], this compound gave a Cmax of 282 ng/mL. The inhibition in vivo at 50 mg/kg in [20] stood at 91.6%. The compound also yielded an AUC in data set [22] of 704 ng·h/mL. The compound also showed a half-life in data set [23] of 222 min. For the same compound, the inhibition in vivo at 10 mg/kg in data set [25] was found to be 74.4%.

For orientation: IC50 means the concentration that gives 50% inhibition. By Cmax is commonly meant the highest concentration seen after dosing. What is called AUC is the area under the concentration-time curve, a measure of exposure. A low value points to low exposure. As a reminder, the half-life is the time needed for the level to fall by half in the phase considered. Read a high half-life as slow decline.
